{"source": "patent US20260007625A1", "about": "“Compounds for the Treatment of Neuromuscular Disorders” (NMD PHARMA A/S, priority 2022, published 2026)", "key": {"[1]": {"system": "isolated rat soleus muscles exposed to tubocurarine", "assay": "Recovery of nerve-stimulated contractile force in isolated rat soleus nerve-muscle preparation after tubocurarine", "conditions": "tubocurarine 115 nM, after 40 mins of compound exposure", "protocol": "The current disclosure relates to compounds that inhibit CIC-1 ion channels and increase muscle excitability and thereby improve muscle function in clinical conditions where muscle activation is failing. Such conditions result in loss of contractile function of skeletal muscle, weakness and excessive fatigue. In this series of experiments the compounds were tested for their ability to restore contractile function of isolated rat muscle when the neuromuscular transmission had been compromised akin to neuromuscular disorders.\nExperimentally, soleus muscles from 4-5 week old rats were isolated with the motor nerve remaining attached. The nerve-muscle preparations were mounted in experimental setups that enabled electrical stimulation of the motor nerve. Stimulation of the motor nerve led to activation of the muscle fibres and ensuing force production that was recorded. The nerve-muscle preparations were also in these experiments incubated in the standard Krebs Ringer (see example 15) and the solution was heated to 30° C. and continuously equilibrated with a mixture of 95% O2 and 5% CO2, PH ˜7.4.\nAfter mounting the nerve-muscle preparation in the experimental setup, the contractile function of the muscle was initially assessed under the control conditions. Sub-maximal concentration of tubocurarine (115 nM), an acetylcholine receptor antagonist, was then added to the experimental bath to impose partial inhibition of the ability of the motor nerve to activate the muscle fibres. The experimental condition mimics the failing neuromuscular transmission in a range of neuromuscular disorders. After addition of tubocurarine the contractile force declined over the next 90 minutes to 10-50% of the control force. The test compound was then added to obtain the required compound concentration in the bath and the contractile force recovered was measured. To quantify the ability of the compound to restore force the percentage of the initial force that was restored was determined after 40 mins of compound exposure and the point increase is reported in Table 2."}, "CIC-1 ion channel": {"molecular_target": "T1, CIC-1 ion channel (Rattus norvegicus, UniProt P35524)", "T1 construct": "from tissue; host or cells: intact soleus muscle of 12-14 week old Wistar rats", "T1 sequence (P35524 1-994)": "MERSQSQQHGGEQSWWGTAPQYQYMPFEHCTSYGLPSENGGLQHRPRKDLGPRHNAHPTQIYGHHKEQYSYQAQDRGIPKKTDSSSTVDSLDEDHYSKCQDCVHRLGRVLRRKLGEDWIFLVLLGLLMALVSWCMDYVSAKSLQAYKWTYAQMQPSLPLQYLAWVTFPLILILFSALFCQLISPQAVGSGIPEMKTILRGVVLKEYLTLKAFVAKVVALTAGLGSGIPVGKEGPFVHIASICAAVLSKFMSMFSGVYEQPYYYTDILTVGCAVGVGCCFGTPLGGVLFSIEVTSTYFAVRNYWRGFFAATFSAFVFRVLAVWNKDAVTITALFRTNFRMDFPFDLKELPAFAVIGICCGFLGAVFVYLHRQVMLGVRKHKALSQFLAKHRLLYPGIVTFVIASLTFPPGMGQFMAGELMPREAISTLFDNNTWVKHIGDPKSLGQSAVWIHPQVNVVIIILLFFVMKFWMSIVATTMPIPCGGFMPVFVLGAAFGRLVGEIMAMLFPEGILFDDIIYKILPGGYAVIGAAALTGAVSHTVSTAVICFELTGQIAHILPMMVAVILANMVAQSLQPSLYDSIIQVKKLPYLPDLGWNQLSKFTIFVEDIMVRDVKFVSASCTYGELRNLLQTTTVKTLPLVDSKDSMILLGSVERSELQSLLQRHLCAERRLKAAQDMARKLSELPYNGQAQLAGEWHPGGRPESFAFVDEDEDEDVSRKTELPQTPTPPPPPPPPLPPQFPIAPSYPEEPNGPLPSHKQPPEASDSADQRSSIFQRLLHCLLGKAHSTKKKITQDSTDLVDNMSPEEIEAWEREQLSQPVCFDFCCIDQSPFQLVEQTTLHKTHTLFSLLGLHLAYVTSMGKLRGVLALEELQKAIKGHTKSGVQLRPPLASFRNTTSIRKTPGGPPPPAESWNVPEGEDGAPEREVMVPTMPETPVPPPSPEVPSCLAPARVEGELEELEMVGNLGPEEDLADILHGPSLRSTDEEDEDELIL", "assay": "Electrophysiological measurement (Gm, three micro-electrodes) of compound inhibition of CIC-1 in rat soleus muscle fibres", "assay_type": "cell-based", "conditions": "Gm in whole rat soleus muscle fibres, approx. 30° C., four increasing compound concentrations", "protocol": "Apparent CIC-1 affinity was reported by the concentration of compound at which 50% of the compound's full inhibition of CIC-1 was observed (EC50).\nExperimentally, Gm was measured in individual fibres of whole rat soleus muscles using a three micro-electrodes technique described in this example and in full detail elsewhere (Riisager et al., Determination of cable parameters in skeletal muscle fibres during repetitive firing of action potentials. Journal of Physiology, 2014, 592, 4417-4429). Briefly, intact rat soleus muscles were dissected out from 12-14 week old Wistar rats and placed in an experimental chamber that was perfused with a standard Krebs Ringer solution containing 122 mM NaCl, 25 mM NaHCO3, 2.8 mM KCl, 1.2 mM KH2PO4, 1.2 mM MgSO4, 1.3 mM CaCl2), 5.0 mM D-glucose. During experiments, the solution was kept at approx. 30° C. and continuously equilibrated with a mixture of 95% O2 and 5% CO2, PH ˜7.4. The experimental chamber was placed in Nikon upright microscope that was used to visualize individual muscle fibres and the three electrodes (glass pipettes filled with 2 M potassium citrate). For Gm measurements, the electrodes were inserted into the same fibre with known inter-electrode distances of 0.35-0.5 mm (V1-V2, X1) and 1.1-1.5 mm (V1-V3, X3). The membrane potential of the impaled muscle fibre was recorded by all electrodes. Two of the electrodes were furthermore used to inject 50 ms current pulses of −30 nA. […] The steady state voltage deflection at each distance was divided by the magnitude of current injected (−30 nA) and the resulting transfer resistances were plotted against inter-electrode distance and the data was fitted to a mono-exponential function from which Gm could be calculated using linear cable theory.\nTo establish a dose response relationship, Gm was first determined in 10 muscle fibres in the absence of compound and then at four increasing compound concentrations with Gm determinations in 5-10 fibres at each concentration. The average Gm values at each concentration were plotted against compound concentration and the data was fitted to sigmoidal function to obtain an EC50 value."}, "Lewis rats": {"system": "Lewis rats", "assay": "In situ isometric hindlimb force in anaesthetised rats under partial neuromuscular block by Cisatracurium", "assay_type": "in vivo, rat", "conditions": "sodium salt, 80 Hz stimulation, Cisatracurium infusion", "protocol": "Isometric hindlimb force was measured in 12-week old female Lewis rats in the presence and absence of compound.\nRats were placed under anaesthesia with isoflurane (2-4%), intubated and subsequently connected to a micro ventilator (Microvent 1, Hallowell EMC, US). Two stimulation electrodes were inserted through the skin to stimulate the sciatic nerve. A small incision was made proximal to the ankle, to expose the Achilles tendon, which was tied by cotton string, and connected to a force transducer (Fort250, World Precision Instruments) with adjustable position (Vernier control). The Achilles tendon was then cut distal to the attached cotton string. […]\nMuscle contractile properties were assessed by applying an electrical current (under supramaximal voltage conditions) to the nerve and recording the force generated by the muscle. The muscle was stretched until maximal force was obtained, when assessed by 2 Hz stimulation. Isometric force was measured every 30 seconds at 12 Hz (Twitch), 10 pulses, and at every 5 minutes at 80 Hz (Tetanic) for 1 second (80 pulses). […] The effect of test article was assessed on its ability to increase force generated from the stimulation pattern applied. The effect was assessed in the ability to increase force per se (tetanic, 80 Hz, stimulation), and the ratio between individual twitch peaks (12 Hz stimulation). […]"}}, "data": [{"smiles": "Cc1cc(Cl)c(OC2CC2)c(C(=O)O)c1C", "note": "[Compound A-5, 3-chloro-2-cyclopropoxy-5,6-dimethylbenzoic acid]", "values": [{"measurement": "Point increase, percentage of initial force that was restored", "setting": "[1]; test compound 50 μM", "value": 48, "unit": "%"}, {"measurement": "EC50", "setting": "CIC-1 ion channel", "value": 6.6, "unit": "µM"}]}, {"smiles": "COc1c(F)cc(Br)c(OC)c1C(=O)O", "note": "[Compound A-2, 3-bromo-5-fluoro-2,6-dimethoxybenzoic acid]", "values": [{"measurement": "Point increase, percentage of initial force that was restored", "setting": "[1]; test compound 100 μM", "value": 16, "unit": "%"}]}, {"smiles": "CSc1c(Cl)cc(C)c(C)c1C(=O)O", "note": "[Compound A-8, 3-chloro-5,6-dimethyl-2-(methylsulphanyl)benzoic acid]", "values": [{"measurement": "Point increase, percentage of initial force that was restored", "setting": "[1]; test compound 10 μM", "value": 24, "unit": "%"}, {"measurement": "EC50", "setting": "CIC-1 ion channel", "value": 3.2, "unit": "µM"}]}, {"smiles": "Cc1cc(Cl)c(OC(F)F)c(C(=O)O)c1C", "note": "[Compound A-9, 3-chloro-2-(difluoromethoxy)-5,6-dimethylbenzoic acid]", "values": [{"measurement": "Point increase, percentage of initial force that was restored", "setting": "[1]; test compound 50 μM", "value": 50, "unit": "%"}, {"measurement": "EC50", "setting": "CIC-1 ion channel", "value": 4.3, "unit": "µM"}]}, {"smiles": "COc1c(C)cc(F)c(OC)c1C(=O)O", "note": "[Compound A-1, 3-fluoro-2,6-dimethoxy-5-methylbenzoic acid]", "values": [{"measurement": "Point increase, percentage of initial force that was restored", "setting": "[1]; test compound 50 μM", "value": 19, "unit": "%"}]}, {"smiles": "COc1c(Cl)cc(C)c(C)c1C(=O)O", "note": "[Compound A-14, 3-chloro-2-methoxy-5,6-dimethylbenzoic acid]", "values": [{"measurement": "increase in tetanic force", "setting": "Lewis rats; 10 mg/kg p.o. in PBS", "value": 45, "unit": "%"}, {"measurement": "Point increase, percentage of initial force that was restored", "setting": "[1]; test compound 50 μM", "value": 44, "unit": "%"}, {"measurement": "EC50", "setting": "CIC-1 ion channel", "value": 3.2, "unit": "µM"}]}, {"smiles": "CCOc1c(Cl)cc(C)c(C)c1C(=O)O", "note": "[Compound A-12, 3-chloro-2-ethoxy-5,6-dimethylbenzoic acid]", "values": [{"measurement": "Point increase, percentage of initial force that was restored", "setting": "[1]; test compound 50 μM", "value": 39, "unit": "%"}]}, {"smiles": "COc1c(C)cc(Cl)c(OC)c1C(=O)O", "note": "[Compound A-7, 3-chloro-2,6-dimethoxy-5-methylbenzoic acid]", "values": [{"measurement": "increase in tetanic force", "setting": "Lewis rats; 2.5 mg/kg i.v. in PBS", "value": 27, "unit": "%"}, {"measurement": "Point increase, percentage of initial force that was restored", "setting": "[1]; test compound 50 μM", "value": 44, "unit": "%"}, {"measurement": "EC50", "setting": "CIC-1 ion channel", "value": 5.3, "unit": "µM"}]}, {"smiles": "COc1c(Cl)cc(Cl)c(OC)c1C(=O)O", "note": "[Compound A-3, 3,5-Dichloro-2,6-dimethoxybenzoic acid]", "values": [{"measurement": "Point increase, percentage of initial force that was restored", "setting": "[1]; test compound 50 μM", "value": 46, "unit": "%"}, {"measurement": "EC50", "setting": "CIC-1 ion channel", "value": 7.4, "unit": "µM"}]}, {"smiles": "COc1c(Cl)cc(C)c(Cl)c1C(=O)O", "note": "[Compound A-6, 2,5-dichloro-6-methoxy-3-methylbenzoic acid]", "values": [{"measurement": "Point increase, percentage of initial force that was restored", "setting": "[1]; test compound 10 μM", "value": 28, "unit": "%"}, {"measurement": "EC50", "setting": "CIC-1 ion channel", "value": 5.8, "unit": "µM"}]}, {"smiles": "COc1c(Br)cc(C)c(C)c1C(=O)O", "note": "[Compound A-13, 3-bromo-2-methoxy-5,6-dimethylbenzoic acid]", "values": [{"measurement": "Point increase, percentage of initial force that was restored", "setting": "[1]; test compound 10 μM", "value": 29, "unit": "%"}, {"measurement": "EC50", "setting": "CIC-1 ion channel", "value": 4.4, "unit": "µM"}]}, {"smiles": "Cc1cc(Cl)c(OCF)c(C(=O)O)c1C", "note": "[Compound A-10, 3-chloro-2-(fluoromethoxy)-5,6-dimethylbenzoic acid]", "values": [{"measurement": "Point increase, percentage of initial force that was restored", "setting": "[1]; test compound 10 μM", "value": 21, "unit": "%"}, {"measurement": "EC50", "setting": "CIC-1 ion channel", "value": 4.1, "unit": "µM"}]}, {"smiles": "Cc1cc(Cl)c(OC(F)(F)F)c(C(=O)O)c1C", "note": "[Compound A-4, 3-chloro-5,6-dimethyl-2-(trifluoromethoxy)benzoic acid]", "values": [{"measurement": "Point increase, percentage of initial force that was restored", "setting": "[1]; test compound 10 μM", "value": 23, "unit": "%"}, {"measurement": "EC50", "setting": "CIC-1 ion channel", "value": 1.7, "unit": "µM"}]}, {"smiles": "COc1c(F)cc(C)c(C)c1C(=O)O", "note": "[Compound A-11, 3-fluoro-2-methoxy-5,6-dimethylbenzoic acid]", "values": [{"measurement": "Point increase, percentage of initial force that was restored", "setting": "[1]; test compound 50 μM", "value": 25, "unit": "%"}]}]}
